Reference: patent publication US12240844B2 (Voronoi, Inc., priority 2019, dated 2025)

Legend:
[1] = system: MDA-MB-231 cell line; experiment: MDA-MB-231 cancer cell proliferation inhibition (Cell Titer-Glo); type: cell-based; conditions: Homo sapiens, MDA-MB-231 triple-negative breast cancer cell line, 72 hours
In short: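 GI50 comes from CellTiter-Glo luminescence, read 10 min after reagent addition at RT, following 72 h compound treatment. Eleven concentrations were used (⅓ steps, highest 10 μM final) on 2000 cells/well. MDA-MB-231 and MDA-MB-468 were grown in DMEM, SHP-77 in RPMI.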

[2] = target: T1, TTK (Homo sapiens, UniProt P33981); experiment: TTK enzyme inhibition, ADP-Glo kinase assay; type: biochemical; design: purchased Signalchem T20-10G; conditions: ATP 5 μM
T1 sequence (P33981 1-857): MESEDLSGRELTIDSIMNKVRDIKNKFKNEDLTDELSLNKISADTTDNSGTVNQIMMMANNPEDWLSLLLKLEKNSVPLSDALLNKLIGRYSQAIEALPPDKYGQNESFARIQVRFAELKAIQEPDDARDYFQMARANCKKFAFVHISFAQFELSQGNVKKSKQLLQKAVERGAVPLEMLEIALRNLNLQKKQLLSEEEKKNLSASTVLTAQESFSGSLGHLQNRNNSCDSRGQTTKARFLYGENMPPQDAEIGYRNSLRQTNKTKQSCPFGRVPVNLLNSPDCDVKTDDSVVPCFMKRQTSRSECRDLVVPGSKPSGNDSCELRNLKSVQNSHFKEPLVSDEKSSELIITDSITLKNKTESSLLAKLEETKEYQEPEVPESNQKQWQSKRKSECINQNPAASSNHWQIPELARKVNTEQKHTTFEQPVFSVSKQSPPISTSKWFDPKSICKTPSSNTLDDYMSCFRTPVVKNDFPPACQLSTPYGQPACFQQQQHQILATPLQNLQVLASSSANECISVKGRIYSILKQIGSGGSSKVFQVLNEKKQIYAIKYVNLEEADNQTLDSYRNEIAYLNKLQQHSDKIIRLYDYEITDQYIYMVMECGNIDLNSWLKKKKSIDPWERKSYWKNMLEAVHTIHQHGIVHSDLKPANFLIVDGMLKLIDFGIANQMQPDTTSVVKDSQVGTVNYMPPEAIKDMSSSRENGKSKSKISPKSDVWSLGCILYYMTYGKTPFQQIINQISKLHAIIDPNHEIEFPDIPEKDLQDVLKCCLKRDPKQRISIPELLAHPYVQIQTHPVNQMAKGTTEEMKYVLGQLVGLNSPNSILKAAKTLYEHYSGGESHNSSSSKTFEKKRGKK
In short: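 Recombinant human TTK (7.5 ng) reacted with 5 μM ATP and MBP substrate (0.2 μg) for 4 h at 25° C in Tris-HCl pH 7.4, MgCl2, BSA, DTT buffer, compound at 0.000017–1 μM. ADP formation by ADP-Glo luminescence; IC50 (nM) relative to solvent control.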

[3] = target: LRRK2 (G2019S) (Homo sapiens, UniProt Q5S007, G2019S); experiment: LRRK2 G2019S enzyme inhibition, ADP-Glo kinase assay; type: biochemical; design: purchased SignalChem L10-12GG
Chain of LRRK2 (G2019S) (Q5S007 970-2527 G2019S limits assumed): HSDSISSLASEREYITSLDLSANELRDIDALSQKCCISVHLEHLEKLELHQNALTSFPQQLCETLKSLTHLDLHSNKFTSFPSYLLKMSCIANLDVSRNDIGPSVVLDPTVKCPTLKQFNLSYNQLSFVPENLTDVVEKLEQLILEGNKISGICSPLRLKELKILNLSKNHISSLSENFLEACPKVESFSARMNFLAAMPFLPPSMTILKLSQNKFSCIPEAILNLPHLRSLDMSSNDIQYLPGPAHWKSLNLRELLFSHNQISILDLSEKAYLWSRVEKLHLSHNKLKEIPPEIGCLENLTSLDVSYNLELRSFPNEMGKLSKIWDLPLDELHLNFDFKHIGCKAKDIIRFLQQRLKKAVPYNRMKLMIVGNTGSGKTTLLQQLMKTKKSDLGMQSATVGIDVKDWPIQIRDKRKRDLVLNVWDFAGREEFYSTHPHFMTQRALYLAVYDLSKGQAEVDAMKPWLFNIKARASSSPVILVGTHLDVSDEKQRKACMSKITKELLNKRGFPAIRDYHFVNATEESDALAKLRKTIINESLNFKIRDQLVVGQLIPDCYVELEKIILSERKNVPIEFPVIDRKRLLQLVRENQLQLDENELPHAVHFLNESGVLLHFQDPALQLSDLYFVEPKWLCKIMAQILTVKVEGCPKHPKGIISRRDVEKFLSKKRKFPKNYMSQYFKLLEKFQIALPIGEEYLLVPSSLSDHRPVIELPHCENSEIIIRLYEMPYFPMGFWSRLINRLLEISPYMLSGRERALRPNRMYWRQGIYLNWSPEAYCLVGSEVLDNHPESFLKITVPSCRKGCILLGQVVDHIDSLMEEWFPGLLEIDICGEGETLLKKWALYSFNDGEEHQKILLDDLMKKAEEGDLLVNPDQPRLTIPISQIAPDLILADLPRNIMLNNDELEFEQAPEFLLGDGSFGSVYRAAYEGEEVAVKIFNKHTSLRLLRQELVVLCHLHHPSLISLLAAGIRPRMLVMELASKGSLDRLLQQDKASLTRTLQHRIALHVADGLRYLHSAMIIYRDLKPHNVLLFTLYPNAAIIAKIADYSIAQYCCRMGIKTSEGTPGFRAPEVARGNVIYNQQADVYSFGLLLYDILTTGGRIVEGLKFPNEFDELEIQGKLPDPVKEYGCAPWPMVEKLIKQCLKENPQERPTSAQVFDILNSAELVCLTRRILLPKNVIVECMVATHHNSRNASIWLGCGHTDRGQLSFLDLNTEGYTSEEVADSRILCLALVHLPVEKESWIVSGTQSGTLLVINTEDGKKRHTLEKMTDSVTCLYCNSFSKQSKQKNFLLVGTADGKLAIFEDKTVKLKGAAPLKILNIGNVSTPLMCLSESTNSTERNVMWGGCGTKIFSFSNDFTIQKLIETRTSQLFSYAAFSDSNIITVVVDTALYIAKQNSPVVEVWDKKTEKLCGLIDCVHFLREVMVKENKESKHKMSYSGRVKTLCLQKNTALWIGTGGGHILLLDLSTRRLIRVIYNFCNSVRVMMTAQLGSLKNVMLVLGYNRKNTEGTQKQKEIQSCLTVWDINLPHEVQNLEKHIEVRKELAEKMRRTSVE
In short: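 Purified human LRRK2 G2019S (16 ng) with 25 μM ATP and 0.2 μg substrate, 2 h at 25° C in 40 mM Tris-HCl pH 7.4, 20 mM MgCl2, 0.5 mg/ml BSA, 50 μM DTT; compound at 12 final concentrations from 50 μM downward. ADP-Glo luminescence versus solvent control gave IC50 (nM).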

| GI50 [1] [nM] | IC50 [2] [nM] | IC50 [3] [nM] | Compound |
| --- | --- | --- | --- |
| 301 to 1000 | < 100 | 101 to 300 | CNc1cc(Nc2ccc(P3(=O)CCN(C4CC4)CC3)cc2OC)nc2[nH]cc(C(F)(F)F)c12 [Example 205, 1-cyclopropyl-4-(3-methoxy-4-((4-(methylamino)-3-(trifluoromethyl)-1H-pyrrolo[2,3-b]pyridin-6-yl)amino)phenyl)-1,4-azaphosphinane 4-oxide] |
| 301 to 1000 | < 100 | < 100 | CCNc1cc(Nc2ccc(C(=O)N3CCN(C4COC4)CC3)c3c2OCC3)nc2[nH]cc(C(F)(F)F)c12 [Example 248, (7-((4-(ethylamino)-3-(trifluoromethyl)-1H-pyrrolo[2,3-b]pyridin-6-yl)amino)-2,3-dihydrobenzofuran-4-yl)(4-(oxetan-3-yl)piperazin-1-yl)methanone] |
| 301 to 1000 | < 100 | 101 to 300 | CCNc1cc(Nc2ccc(P3(=O)CCN(C(C)=O)CC3)cc2OC)nc2[nH]cc(C(F)(F)F)c12 [Example 42, 1-(4-(4-((4-(ethylamino)-3-(trifluoromethyl)-1H-pyrrolo[2,3-b]pyridin-6-yl)amino)-3-methoxyphenyl)-4-oxido-1,4-azaphosphinan-1-yl)ethan-1-one] |
| 301 to 1000 | 101 to 300 | < 100 | COCCNc1cc(Nc2ccc(C(=O)N3CCC(N4CCOCC4)CC3)c3c2OCC3)nc2[nH]cc(C(F)(F)F)c12 [Example 55, (7-((4-((2-methoxyethyl)amino)-3-(trifluoromethyl)-1H-pyrrolo[2,3-b]pyridin-6-yl)amino)-2,3-dihydrobenzofuran-4-yl)(4-morpholinopiperidin-1-yl)methanone] |
| 301 to 1000 | < 100 | < 100 | CCNc1cc(Nc2ccc(C(=O)N3CCC(N4CCOCC4)CC3)c3c2OCC3)nc2[nH]cc(C(F)(F)F)c12 [Example 90, (7-((4-(ethylamino)-3-(trifluoromethyl)-1H-pyrrolo[2,3-b]pyridin-6-yl)amino)-2,3-dihydrobenzofuran-4-yl)(4-morpholinopiperidin-1-yl)methanone] |
| 301 to 1000 | < 100 | < 100 | CNc1cc(Nc2ccc(S(=O)(=O)N3CCC(N4CCOCC4)CC3)cc2OC)nc2[nH]cc(C(F)(F)F)c12 [Example 184, N^6-(2-methoxy-4-((4-morpholinopiperidin-1-yl)sulfonyl)phenyl)-N^4-methyl-3-(trifluoromethyl)-1H-pyrrolo[2,3-b]pyridine-4,6-diamine] |
| 301 to 1000 | < 100 | 301 to 1000 | COc1cc(S(=O)(=O)N2CCOCC2)ccc1Nc1cc(C2CC2)c2c(C(F)(F)F)c[nH]c2n1 [Example 222, 4-cyclopropyl-N-(2-methoxy-4-(morpholinosulfonyl)phenyl)-3-(trifluoromethyl)-1H-pyrrolo[2,3-b]pyridin-6-amine] |
| 301 to 1000 | 301 to 1000 | 301 to 1000 | COc1cc(P2(=O)CCN(C(C)=O)CC2)ccc1Nc1cc(C2CC2)c2c(C(F)(F)F)c[nH]c2n1 [Example 48, 1-(4-(4-((4-cyclopropyl-3-(trifluoromethyl)-1H-pyrrolo[2,3-b]pyridin-6-yl)amino)-3-methoxyphenyl)-4-oxido-1,4-azaphosphinan-1-yl)ethan-1-one] |
| 301 to 1000 | < 100 | < 100 | CCNc1cc(Nc2ccc(C(=O)N3CCC(N4C[C@H]5C[C@@H]4CO5)CC3)c3c2OCC3)nc2[nH]cc(C(F)(F)F)c12 [Example 244, (4-((1R,4R)-2-oxa-5-azabicyclo[2.2.1]heptan-5-yl)piperidin-1-yl)(7-((4-(ethylamino)-3-(trifluoromethyl)-1H-pyrrolo[2,3-b]pyridin-6-yl)amino)-2,3-dihydrobenzofuran-4-yl)methanone] |

Second part, the molecule before the results:

| Compound | GI50 [1] [nM] | IC50 [2] [nM] | IC50 [3] [nM] |
| --- | --- | --- | --- |
| COc1cc(S(=O)(=O)N2CCC(N3CCOCC3)CC2)ccc1Nc1cc(C2CC2)c2c(C#N)c[nH]c2n1 [Example 228, 4-cyclopropyl-6-((2-methoxy-4-((4-morpholinopiperidin-1-yl)sulfonyl)phenyl)amino)-1H-pyrrolo[2,3-b]pyridine-3-carbonitrile] | 51 to 100 | < 100 | < 100 |
| COc1cc(S(=O)(=O)N2CCOCC2)ccc1Nc1cc(C2CC2)c2c(C#N)c[nH]c2n1 [Example 227, 4-cyclopropyl-6-((2-methoxy-4-(morpholinosulfonyl)phenyl)amino)-1H-pyrrolo[2,3-b]pyridine-3-carbonitrile] | 301 to 1000 | < 100 | 101 to 300 |
| N#Cc1c[nH]c2nc(Nc3ccc(C(=O)N4CCOCC4)c4c3OCCO4)cc(C3CC3)c12 [Example 225, 4-cyclopropyl-6-((8-(morpholine-4-carbonyl)-2,3-dihydrobenzo[b] [1,4]dioxin-5-yl)amino)-1H-pyrrolo[2,3-b]pyridine-3-carbonitrile] | 301 to 1000 | < 100 | < 100 |
| O=C(c1ccc(Nc2cc(C3CC3)c3c(C(F)(F)F)c[nH]c3n2)c2c1OCCO2)N1CCC(N2CCOCC2)CC1 [Example 221, (8-((4-cyclopropyl-3-(trifluoromethyl)-1H-pyrrolo[2,3-b]pyridin-6-yl)amino)-2,3-dihydrobenzo [b] [1,4]dioxin-5-yl)(4-morpholinopiperidin-1-yl)methanone] | 301 to 1000 | < 100 | 101 to 300 |
| O=C(c1ccc(Nc2cc(C3CC3)c3c(C(F)(F)F)c[nH]c3n2)c2c1CCO2)N1CCOCC1 [Example 91, (7-((4-cyclopropyl-3-(trifluoromethyl)-1H-pyrrolo[2,3-b]pyridin-6-yl)amino)-2,3-dihydrobenzofuran-4-yl)(morpholino) methanone] | 301 to 1000 | 301 to 1000 | 301 to 1000 |
| N#Cc1c[nH]c2nc(Nc3ccc(C(=O)N4CCC(N5CCOCC5)CC4)c4c3OCCO4)cc(C3CC3)c12 [Example 226, 4-cyclopropyl-6-((8-(4-morpholinopiperidine-1-carbonyl)-2,3-dihydrobenzo[b] [1,4]dioxin-5-yl)amino)-1H-pyrrolo[2,3-b]pyridine-3-carbonitrile] | 301 to 1000 | < 100 | < 100 |
| CNc1cc(Nc2ccc(C(=O)N3CC[C@@H](N4CCOCC4)C3)c3c2OCC3)nc2[nH]cc(C(F)(F)F)c12 [Example 214, (R)-(7-((4-(methylamino)-3-(trifluoromethyl)-1H-pyrrolo[2,3-b]pyridin-6-yl)amino)-2,3-dihydrobenzofuran-4-yl)(3-morpholinopyrrolidin-1-yl)methanone] | 301 to 1000 | 101 to 300 | < 100 |
| O=C(c1ccc(Nc2cc(C3CC3)c3c(C(F)(F)F)c[nH]c3n2)c2c1CCO2)N1CCC(N2CCOCC2)CC1 [Example 93, (7-((4-cyclopropyl-3-(trifluoromethyl)-1H-pyrrolo[2,3-b]pyridin-6-yl)amino)-2,3-dihydrobenzofuran-4-yl)(4-morpholinopiperidin-1-yl)mthanone] | 301 to 1000 | 301 to 1000 | < 100 |
| CNc1cc(Nc2ccc(C(=O)N3CCC(N4C[C@@H]5C[C@H]4CO5)CC3)c3c2OCC3)nc2[nH]cc(C(F)(F)F)c12 [Example 241, (4-((1S,4S)-2-oxa-5-azabicyclo[2.2.1]heptan-5-yl)piperidin-1-yl)(7-((4-(methylamino)-3-(trifluoromethyl)-1H-pyrrolo[2,3-b]pyridin-6-yl)amino)-2,3-dihydrobenzofuran-4-yl)methanone] | 301 to 1000 | < 100 | < 100 |
| CNc1cc(Nc2ccc(C(=O)N3CCC(N4CCOCC4)CC3)c3c2OCC3)nc2[nH]cc(C(F)(F)F)c12 [Example 234, (7-((4-(methylamino)-3-(trifluoromethyl)-1H-pyrrolo[2,3-b]pyridin-6-yl)amino)-2,3-dihydrobenzofuran-4-yl)(4-morpholinopiperidin-1-yl)methanone] | 301 to 1000 | < 100 | < 100 |
